Test results published in patent US20160051560A1, “TREATMENTS INVOLVING ESLICARBAZEPINE OR ESLICARBAZEPINE ACETATE” (BIAL - PORTELA & Cª, S.A., priority 2013, published 2016).

Tests used:
[1] = tested on: patients with acute manic (including mixed) episode, bipolar I disorder; assay: Study BIA-2093-204: 3-week double-blind, randomised, placebo-controlled, fixed multiple dose study in acute mania; assay type: in vivo, human; conditions: for YMRS score absolute change from V2 (1 Day) to V7 (21 Days), Mean ± SD / YMRS score absolute change from V2 (1 Day) to V7 (21 Days), Median (range): ITT
Protocol: Two 3-week multicentre, double-blind, randomised, placebo-controlled studies in acute mania (study BIA-2093-203: dose titrated by response, eslicarbazepine acetate (ESL) 600-1800 mg or 800-2400 mg, once-daily; study BIA-2093-204: fixed doses of 600, 1200 and 1800 mg, once-daily) were followed by a recurrence prevention study consisting of a 2-week open-label period (900 mg, once-daily) continued by a double-blind, parallel-group, fixed dose (300, 900 and 1800 mg, once-daily) period for a minimum of 6 months. The primary endpoint was change in Young Mania Rating Scale (YMRS) in studies BIA-2093-203 and BIA-2093-204, and the proportion of no worsening patients in the Clinical Global Impressions-Bipolar Version (CGI-BP) in study BIA-2093-205.
Study BIA-2093-204 (EudraCT No 2005-002133-13) followed a multicentre, double-blind, randomised, parallel-group, placebo-controlled, fixed multiple dose design. This study was conducted at 25 study centres in Europe, South Africa and South America. Patients were randomised (1:1:1:1) to one of the following treatment groups: (1) ESL 1800 mg QD, (2) ESL 1200 mg QD, (3) ESL 600 mg QD, and (4) Placebo QD. The visit schedule in study BIA-2093-204 was similar to that of study BIA-2093-203. […] Patients also had the option of entering Study BIA-2093-205.
Studies BIA-2093-203 and BIA-2093-204 enrolled patients with ages ≧18 years, currently displaying an acute manic (including mixed) episode and with a documented diagnosis of bipolar I disorder according to the DSM-IV criteria (2). Eligible patients should have a Young Mania Rating Scale (YMRS) total score ≧20, with symptoms of the current manic episode starting within two weeks prior to randomization. Patients were excluded if they had history of schizophrenia or schizoaffective disorder, psychotic features or rapid cycling. Patients were also excluded if they were treated with carbamazepine, oxcarbazepine or a depot-neuroleptic. Previous treatment with ESL or history of unresponsiveness, intolerance or hypersensitivity to other dibenzazepine compounds (carbamazepine, oxcarbazepine or licarbazepine) also constituted criteria for exclusion. Patients with clinical relevant risk of harm to self or others and history of substance abuse were also excluded. Women were excluded if they were pregnant or breast-feeding, or if of childbearing potential they were unable to use double-barrier contraception.
The following validated instruments were used: YMRS (20), the Clinical Global Impressions-Bipolar Version (CGI-BP) scale (21) and the Montgomery-Åsberg Depression Rating Scale (MADRS) (22). The YMRS score is the sum of 11 scoring items, ranging from 0 to 60 points; higher scores indicate higher mania symptomatology (20). The CGI-BP scale measures severity and treatment-related improvement in mania, depression and overall illness categories. It comprises 3 scales: severity of illness (1—normal to 7—very severely ill, in which 3—mildly ill was used as cut-off value for statistical analysis), change from preceding phase and worst phase (1—very much improved to 7—very much worse, and 8—not applicable) (21). The MADRS score is calculated as the sum of the 10 scoring items, ranging from 0 to 60 points: higher scores indicate higher depression symptomatology (22).
The primary efficacy endpoint for acute mania studies (BIA-2093-203 and BIA-2093-204) was the change in YMRS total score from baseline until the end of the 3-week treatment period. Investigators administered the YMRS at each visit. Secondary efficacy variables based on the YMRS score included responder rate (proportion of patients with ≧50% improvement or <12 points in the YMRS score), change in YMRS total score for each visit, proportion of patients in full remission (YMRS score <12), and time to full remission. The investigators completed CGI-BP in all visits and the test scores in the different categories were considered as secondary endpoints. […]

[2] = tested on: patients with acute manic (including mixed) episode, bipolar I disorder; assay: Adverse events, Studies BIA-2093-203 and BIA-2093-204 together (safety population); assay type: in vivo, human
Protocol: Medical history and demographic information was obtained at the screening visit. A complete physical and neurological examination was performed at screening, V7 or early discontinuation (EDV), V8 and post-study visit (PSV). Vital signs (pulse rate and blood pressure) were determined at every visit. […] Clinically significant abnormalities in laboratory tests, vital signs or 12-lead ECG were considered as AEs.
Safety was evaluated based on the occurrence of AEs. AEs were documented by the investigator with reference to intensity, dates of occurrence and resolution, outcome and relation to the treatment (causality). Furthermore, each AE was classified as being serious or non-serious. All patients with AEs were followed until their resolution. AEs were coded according to the Medical Dictionary for Regulatory Activities (MedDRA).
Three study populations were defined for the statistical analyses: safety, intent to treat (ITT), and per protocol (PP). The safety population consisted of all patients who received at least one dose of investigational product. The ITT population consisted of all randomised patients who had at least one post-baseline efficacy assessment. The PP population consisted of all patients who complied with the study protocol without major deviations.

[3] = leading to a better tolerability profile; cited from earlier work
[4] = ESL 1200 mg, n = 9, only study 204
[5] = ESL 1800 mg, n = 10, only study 204
[6] = ESL 600 mg, n = 72, Studies 203 and 204

SMILES: CC(=O)O[C@H]1Cc2ccccc2N(C(N)=O)c2ccccc21 [ESL, (S)-10-acetoxy-10,11-dihydro-5H-dibenz[b,f]azepine-5-carboxamide]
- YMRS score absolute change from V2 (1 Day) to V7 (21 Days), Mean ± SD ([1]; ESL 600 mg QD, n = 8): −16.9 ± 2.8
- YMRS score absolute change from V2 (1 Day) to V7 (21 Days), Median (range) ([1]; ESL 600 mg QD, n = 8): −17.5 (−20.0, −12.0)
- YMRS score absolute change from V2 (1 Day) to V7 (21 Days), Mean ± SD ([1]; ESL 1200 mg QD, n = 9): −16.7 ± 9.1
- YMRS score absolute change from V2 (1 Day) to V7 (21 Days), Median (range) ([1]; ESL 1200 mg QD, n = 9): −15.0 (−35.0, −4.0)
- Any Adverse Events [1, 4]: 9 (100.0) Number (%) of patients
- Diarrhoea [1, 4]: 0 (0.0) Number (%) of patients
- Dizziness [1, 4]: 2 (22.2) Number (%) of patients
- Headache [1, 4]: 5 (55.6) Number (%) of patients
- Nausea [1, 4]: 1 (11.1) Number (%) of patients
- Paraesthesia oral [1, 4]: 1 (11.1) Number (%) of patients
- Somnolence [1, 4]: 1 (11.1) Number (%) of patients
- Vomiting [1, 4]: 2 (22.2) Number (%) of patients
- YMRS score absolute change from V2 (1 Day) to V7 (21 Days), Mean ± SD ([1]; ESL 1800 mg QD, n = 9): −11.3 ± 10.9
- YMRS score absolute change from V2 (1 Day) to V7 (21 Days), Median (range) ([1]; ESL 1800 mg QD, n = 9): −15.0 (−26.0, 7.0)
- mean change in YMRS total scores from screening to V7 ([1]; ESL 1800 mg group): −11.3
- patients in full remission at the end of the 3-week treatment period ([1]; ESL 1800 mg group): 33.3%
- Any Adverse Events [1, 5]: 10 (100.0) Number (%) of patients
- Diarrhoea [1, 5]: 0 (0.0) Number (%) of patients
- Dizziness [1, 5]: 4 (40.0) Number (%) of patients
- Headache [1, 5]: 1 (10.0) Number (%) of patients
- Nausea [1, 5]: 3 (30.0) Number (%) of patients
- Paraesthesia oral [1, 5]: 2 (20.0) Number (%) of patients
- Somnolence [1, 5]: 3 (30.0) Number (%) of patients
- Vomiting [1, 5]: 2 (20.0) Number (%) of patients
- serious AE: leukopenia and hyponatremia ([2]; ESL 600 mg): 1 case
- Any Adverse Events [2, 6]: 38 (52.8) Number (%) of patients
- Diarrhoea [2, 6]: 8 (11.1) Number (%) of patients
- Dizziness [2, 6]: 7 (9.7) Number (%) of patients
- Headache [2, 6]: 8 (11.1) Number (%) of patients
- Nausea [2, 6]: 2 (2.8) Number (%) of patients
- Paraesthesia oral [2, 6]: 0 (0.0) Number (%) of patients
- Somnolence [2, 6]: 2 (2.8) Number (%) of patients
- Vomiting [2, 6]: 4 (5.6) Number (%) of patients
- incidence of treatment-related AEs ([2]; studies BIA-2093-203 and BIA-2093-204, comparable between treatment groups): < 35 % of patients
- production of toxic metabolites compared to carbamazepine [3]: reduced production of toxic metabolites
